Converted amounts (≈) assume the structure as drawn. Read-outs that look alike come from different tables or passages of the source.
Assays:
[1] = Rat Hepatocyte Stability (Test E); assay type: in vitro ADME; settings: rat, hepatocytes, geometric mean if run multiple times
Procedure, shortened: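 Run per the published AstraZeneca-type rat hepatocyte stability protocol (Wernevik et al. panel). Values are mean intrinsic clearance, Clint in μl/min/10^6 cells; geometric mean used for repeated runs.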

[2] = Human Plasma Protein Binding (Test B); assay type: in vitro ADME; settings: fraction unbound (fu)
Procedure, shortened: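 Human plasma protein binding run per the published Wernevik et al. (2020) integrated DMPK panel protocol. Values are fraction unbound (fu, % free); repeat runs averaged arithmetically.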

[3] = Solubility (Test F); assay type: physicochemical; settings: arithmetic mean if run multiple times
Procedure: The assay was conducted according to the Solubility Assay described in pages 164-167 of Wernevik, J. et al., “A Fully Integrated Assay Panel for Early Drug Metabolism and Pharmacokinetics Profiling”, Assay and Drug Development Technologies, 2020, 18(4), 157-179. Data are reported in Table 36 as solubility ([…]. Where the assay was run multiple times for the same compound, the arithmetic mean is reported.

[4] = Human Hepatocyte Stability (Test D); assay type: in vitro ADME; settings: human, cryopreserved pooled human hepatocytes (LiverPool 10-Donor), geometric mean if run multiple times
Procedure, shortened: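 Pooled 10-donor cryopreserved human hepatocytes (≥80% viable) in L-15 medium at 0.25×10^6 cells per 0.25 mL well. Compound added from 100 μM acetonitrile solution; incubated at 37 °C with shaking, acetonitrile-quenched, LC-MS analysed. Clint (μL/min/10^6 cells) from ln % parent vs time slope; geometric mean of repeat runs.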

[5] = target: T1, human RXFP1 (Homo sapiens, UniProt Q9HBX9); test: RXFP1 Hu cAMP (Test A); assay type: cell-based; parameters: expressed in transfected cells; host or cells: Jump-In T-REx CHO-K1 cells (ThermoFisher), induced with 10 ng/ml doxycycline for 24 h
T1 sequence (Q9HBX9 1-757): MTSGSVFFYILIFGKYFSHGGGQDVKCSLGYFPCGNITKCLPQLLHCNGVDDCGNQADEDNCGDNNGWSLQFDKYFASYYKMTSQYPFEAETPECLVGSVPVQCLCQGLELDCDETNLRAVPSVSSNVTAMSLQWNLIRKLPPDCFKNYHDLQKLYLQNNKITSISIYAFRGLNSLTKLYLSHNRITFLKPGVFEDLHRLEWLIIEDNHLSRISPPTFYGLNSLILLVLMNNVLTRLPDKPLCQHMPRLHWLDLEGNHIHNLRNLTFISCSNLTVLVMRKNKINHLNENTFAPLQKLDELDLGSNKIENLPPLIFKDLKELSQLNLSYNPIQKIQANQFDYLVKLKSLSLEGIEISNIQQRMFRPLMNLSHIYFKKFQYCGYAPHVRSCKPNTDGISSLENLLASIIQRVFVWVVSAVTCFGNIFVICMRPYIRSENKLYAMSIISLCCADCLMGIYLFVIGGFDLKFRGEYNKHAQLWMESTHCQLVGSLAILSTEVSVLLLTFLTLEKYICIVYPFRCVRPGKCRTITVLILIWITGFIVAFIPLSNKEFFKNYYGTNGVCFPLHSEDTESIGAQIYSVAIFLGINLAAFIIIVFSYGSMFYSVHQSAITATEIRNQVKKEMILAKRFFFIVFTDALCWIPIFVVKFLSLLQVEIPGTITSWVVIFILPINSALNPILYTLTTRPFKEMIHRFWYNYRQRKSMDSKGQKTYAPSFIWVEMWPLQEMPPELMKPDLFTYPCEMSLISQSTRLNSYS
Procedure, shortened: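 CHO-K1 (Jump-In T-REx), RXFP1 induced w/ 10 ng/ml doxycycline 24 h, cryopreserved. 0.5 mM IBMX final. cAMP by HTRF, 2 h RT, std curve.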

[6] = Human Liver Microsomal Stability (Test C); assay type: in vitro ADME; settings: human, liver microsomes
Procedure, shortened: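 Human liver microsome incubation per the Wernevik et al. integrated DMPK panel protocol. Intrinsic clearance reported as CLint in μl/min/mg protein, averaged arithmetically over repeat runs.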

[7] = RXFP1 Hu cAMP, read-out: Test A EC50

Row | SMILES | hepatocyte CLint [1] | Test B Human Plasma Protein Binding (% free) [2] | solubility [3] | hepatocyte CLint at 1 µM [4] | Test A Sinf ([5]; RXFP1 Hu cAMP) | EC50 [5, 7] | microsomal CLint [6] | EC50 ([5]; Test A EC50, RXFP1 Hu cAMP)
1 | COc1cc(-c2cc(C(=O)N[C@H]3[C@@H](C(=O)Nc4cccc(S(=O)(=O)C(F)(F)F)c4)[C@@H]4C=C[C@H]3C4)c(OC)cc2F)ccc1C(=O)O (racemic) [Example 226, rac-2′-Fluoro-3,4′-dimethoxy-5′-(((1R,2R,3S,4S)-3-((3-((trifluoromethyl)sulfonyl)phenyl)carbamoyl)bicyclo[2.2.1]hept-5-en-2-yl)carbamoyl)-[1,1′-biphenyl]-4-carboxylic acid] | 16 µL/min/1e6 cells | 0.62 % free | 870 µM (≈ 576 µg/mL) | 11 µL/min/1e6 cells | 105% | 300 nM | 12 µL/min/mg | –
2 | COc1cc(F)c(O[C@H]2CC[C@@H](C(=O)O)CC2)cc1C(=O)N[C@@H]1CCC[C@@H]1C(=O)Nc1cccc(S(=O)(=O)C(F)(F)F)c1 [Example 490] | 16 µL/min/1e6 cells | 1.9 % free | 940 µM (≈ 593 µg/mL) | 17 µL/min/1e6 cells | 127% | 300 nM | 30 µL/min/mg | –
3 | CCC(CC)[C@H](C)NC(=O)[C@H]1[C@@H]2CC[C@@H](C2)[C@H]1NC(=O)c1cc(O[C@H]2CC[C@@](C)(C(=O)O)CC2)c(F)cc1OC (single isomer, unassigned) [Example 144, (1S,4s)-4-(5-(((1S,2R,3S,4R)-3-(((R*)-3-Ethylpentan-2-yl)carbamoyl)bicyclo-[2.2.1]heptan-2-yl)carbamoyl)-2-fluoro-4-methoxyphenoxy)-1-methylcyclohexane-1-carboxylic acid] | 29 µL/min/1e6 cells | 3 % free | 29 µM (≈ 16.3 µg/mL) | 17 µL/min/1e6 cells | 106% | 93 nM | 240 µL/min/mg | –
4 | COc1cc(C#N)c(O[C@H]2CC[C@@](C)(C(=O)O)CC2)cc1C(=O)N[C@@H]1[C@H]2CC[C@H](C2)[C@@H]1C(=O)NC(C)(C)C [Example 99] | 11 µL/min/1e6 cells | 20 % free | 920 µM (≈ 484 µg/mL) | < 1 µL/min/1e6 cells | 113% | 140 nM | 6.2 µL/min/mg | –
5 | COc1cc(F)c(O[C@H]2CC[C@@](C)(C(=O)O)CC2)cc1C(=O)N[C@@H]1[C@H]2CC[C@H](C2)[C@@H]1C(=O)NCC(C)(C)C [Example 35, (1S,4s)-4-(2-Fluoro-4-methoxy-5-(((1S,2R,3S,4R)-3-(neopentylcarbamoyl)bicyclo[2.2.1]heptan-2-yl)carbamoyl)phenoxy)-1-methylcyclohexane-1-carboxylic acid] | 23 µL/min/1e6 cells | 8.2 % free | > 730 µM | 2.7 µL/min/1e6 cells | – | – | 14 µL/min/mg | 39 nM
6 | CC1(CNC(=O)[C@H]2[C@@H]3CC[C@@H](C3)[C@H]2NC(=O)c2cc(O[C@H]3CC[C@@](C)(C(=O)O)CC3)c(C#N)cc2F)CCC1 [Example 401] | 17 µL/min/1e6 cells | 2.7 % free | 1000 µM (≈ 540 µg/mL) | 5.4 µL/min/1e6 cells | 115% | – | 16 µL/min/mg | 49 nM
7 | COc1cc(F)c(Oc2ccc(C(=O)O)cc2)cc1C(=O)N[C@H]1[C@@H](C(=O)Nc2cccc(S(=O)(=O)C(F)(F)F)c2)[C@@H]2C=C[C@H]1C2 (racemic) [Example 484] | 13 µL/min/1e6 cells | <0.31 % free | 400 µM (≈ 259 µg/mL) | 7.2 µL/min/1e6 cells | 101% | 250 nM | 9.4 µL/min/mg | –
8 | COc1cc(F)c(O[C@H]2C[C@@H](C(=O)O)C2)cc1C(=O)NC1[C@H]2CC[C@H](C2)[C@@H]1C(=O)Nc1cccc(S(=O)(=O)C(F)(F)F)c1 (some centres unmarked) [Example 444] | 22 µL/min/1e6 cells | 2.5 % free | > 1000 µM | 15 µL/min/1e6 cells | 117% | 120 nM | 18 µL/min/mg | –
9 | CCC(CC)CNC(=O)[C@H]1[C@@H]2CC[C@@H](C2)[C@H]1NC(=O)c1cc(OC2CCC(C)(C(=O)O)CC2)c(F)cc1OC (some centres unmarked) [Example 43] | 25 µL/min/1e6 cells | 1.3 % free | 770 µM (≈ 421 µg/mL) | 5 µL/min/1e6 cells | 106% | 83 nM | 33 µL/min/mg | –
10 | COc1cc(F)c(-c2cnn(CCC(=O)O)c2)cc1C(=O)N[C@@H]1[C@H]2CC[C@H](C2)[C@@H]1C(=O)Nc1cccc(S(=O)(=O)C(F)(F)F)c1 [Example 255] | 12 µL/min/1e6 cells | 2 % free | 1000 µM (≈ 653 µg/mL) | 13 µL/min/1e6 cells | 101% | 550 nM | 26 µL/min/mg | –

Now from value to compound, other results behind:

Row | hepatocyte CLint [1] | Test B Human Plasma Protein Binding (% free) [2] | solubility [3] | hepatocyte CLint at 1 µM [4] | Test A Sinf ([5]; RXFP1 Hu cAMP) | EC50 [5, 7] | microsomal CLint [6] | SMILES | EC50 ([5]; Test A EC50, RXFP1 Hu cAMP)
11 | 20 µL/min/1e6 cells | 0.87 % free | 670 µM (≈ 368 µg/mL) | 6.5 µL/min/1e6 cells | 106% | 24 nM | 32 µL/min/mg | CC1(CNC(=O)[C@H]2[C@@H]3CC[C@@H](C3)[C@H]2NC(=O)c2cc(O[C@H]3CC[C@@](C)(C(=O)O)CC3)c(Cl)cc2F)CCC1 [Example 408] | –
12 | 19 µL/min/1e6 cells | 2.1 % free | 430 µM (≈ 285 µg/mL) | 8 µL/min/1e6 cells | 114% | 37 nM | 32 µL/min/mg | COc1cc(F)c(O[C@H]2CC[C@@](C)(C(=O)O)CC2)cc1C(=O)N[C@@H]1CCC[C@]1(F)C(=O)Nc1cccc(S(=O)(=O)C(F)(F)F)c1 [Example 355] | –
13 | 19 µL/min/1e6 cells | 7.1 % free | > 1000 µM | 43 µL/min/1e6 cells | 106% | 99 nM | 16 µL/min/mg | COc1cc(C#N)c(O[C@H]2CC[C@@](C)(C(=O)O)CC2)cc1C(=O)NC1C2CCC(O2)C1C(=O)NCC1(C)CCC1 (single isomer, unassigned) [Example 534, (1R,4s)-4-(2-Cyano-4-methoxy-5-(((1S*,2S*,3R*,4R*)-3-(((1-methylcyclobutyl)methyl)carbamoyl)-7-oxabicyclo[2.2.1]heptan-2-yl)carbamoyl)phenoxy)-1-methylcyclohexane-1-carboxylic acid] | –
14 | 19 µL/min/1e6 cells | 0.64 % free | 3.1 µM (≈ 1.68 µg/mL) | 4.2 µL/min/1e6 cells | 132% | 210 nM | < 3 µL/min/mg | COc1cc(F)c(O[C@H]2CC[C@@](C)(C(=O)O)CC2)cc1C(=O)Nc1ccc(C)cc1C(=O)NCC1(C)CCC1 [Example 216, (1s,4s)-4-(2-Fluoro-4-methoxy-5-((4-methyl-2-(((1-methylcyclobutyl)methyl)-carbamoyl)phenyl)carbamoyl)phenoxy)-1-methylcyclohexane-1-carboxylic acid] | –
15 | 17 µL/min/1e6 cells | 15 % free | > 1000 µM | 3.6 µL/min/1e6 cells | 101% | 100 nM | 8.4 µL/min/mg | COc1cc(C#N)c(O[C@H]2CC[C@@](C)(C(=O)O)CC2)cc1C(=O)N[C@@H]1CCC[C@@H]1C(=O)NCC1(C)CCC1 [Example 360] | –

— patent publication US11667602B2, “Compounds and their use” (AstraZeneca AB, priority 2020, dated 2023)
